Measured values taken from patent US4593104A, “2-halo-N-(azole-1-yl-methyl)-substituted acetanilides” (BASF Aktiengesellschaft, priority 1976, dated 1986).

Assays:
Matric. spp. = experiment: postemergence application in the greenhouse, % damage; assay type: in vivo
Excerpt: (§1) The vessels employed were plastic flowerpots having a volume of 300 cm^3; the substrate was a sandy loam containing about 1.5% humus. The seeds of the test plants (see Table 1) were sown shallow, and separated according to species. In the case of Cyperus esculentus, pregerminated tubers were planted. In the preemergence treatment, the active ingredients were then immediately applied to the surface of the soil. They were suspended or emulsified in water as the vehicle, and sprayed through atomizing nozzles. After the agents had been applied, the vessels were lightly sprinkler-irrigated to set germination and growth going, and to activate the chemical agents. The vessels were then covered with transparent plastic hoods until the plants had taken root. This cover ensured uniform germination of the test plants (to the extent that this was not impaired by the chemicals), and prevented readily volatile substances from evaporating.
(§2) For postemergence treatment, the plants were first grown to a height of from 3 to 10 cm, depending on their habit, before treated. Hoods were not placed on the pots. The experiments were set up in the greenhouse, hotter areas (25° to 40° C.) being preferred for heat-loving species, and 15° to 30° C. for plants from moderate climates. The experiments were carried out for from 4 to 6 weeks. During this period the plants were tended and their reaction to the various treatments was assessed. The following tables contain the substances investigated, the application rates in kg/ha of active ingredient, and the test plant species. Assessments were made on a 0 to 100 scale, 0 denoting no damage or normal emergence, and 100 denoting no emergence or complete destruction of at least the visible plant parts.

Avena fat. = experiment: as above; assay type: in vivo
Excerpt: as §1, §2

Setaria spp. [1] = experiment: as above; assay type: in vivo
Excerpt: as §1, §2

Stell. med. = experiment: as above; assay type: in vivo
Excerpt: as §1, §2

Alopec. myosur. [2] = experiment: as above; assay type: in vivo
Excerpt: as §1, §2

Chrys. seget. = experiment: as above; assay type: in vivo
Excerpt: as §1, §2

Glyc. max = experiment: preemergence treatment in the greenhouse, % damage; assay type: in vivo, Glycine max
Excerpt: as §1, §2

Gossyp. hirs. = experiment: preemergence treatment in the greenhouse, % damage; assay type: in vivo, Gosspyium hirsutum
Excerpt: as §1, §2

Cyper. escul. [3] = experiment: postemergence application in the greenhouse, % damage; assay type: in vivo, Cyperus esculentus
Excerpt: as §1, §2

Echin. c.g. = experiment: preemergence treatment in the greenhouse, % damage; assay type: in vivo
Excerpt: as §1, §2

Setaria spp. [4] = experiment: preemergence treatment in the greenhouse, % damage; assay type: in vivo
Excerpt: as §1, §2

Amar. retro. = experiment: preemergence treatment in the greenhouse, % damage; assay type: in vivo
Excerpt: as §1, §2

Solanum nigrum = experiment: preemergence treatment in the greenhouse, % damage; assay type: in vivo
Excerpt: as §1, §2

Euph. gen. = experiment: preemergence treatment in the greenhouse, % damage; assay type: in vivo
Excerpt: as §1, §2

Cyper. escul. [5] = experiment: preemergence treatment in the greenhouse, % damage; assay type: in vivo, Cyperus esculentus
Excerpt: as §1, §2

Brassica napus = experiment: preemergence application in the open, % damage; assay type: in vivo
Experimental: (§3) The experiments were carried out on small plots. The soil was a sandy loam having a pH of from 5 to 6 and containing from 1 to 1.5% humus. The treatment was preemergence, the active ingredients being applied immediately or at the latest 3 days after sowing. The crop plants were sown in rows. The weed flora was made up of the most widely varying species and was natural; the weed flora depended on the time of the year and in part on the crop (e.g., spring-germinating, summer-germinating). The substances were emulsified or suspended in water as the vehicle, and applied by means of a motor-driven plot spray mounted on a hitch. When no rain fell, the plots were watered to ensure germination and growth of the crop plants and weeds. All the experiments were run for several weeks. Over this period, assessments were made at certain intervals on the 0 to 100 scale.

Anth./Matric. = experiment: preemergence application in the open, % damage; assay type: in vivo
Experimental: as §3

Lamium spp. = experiment: preemergence application in the open, % damage; assay type: in vivo
Experimental: as §3

Alopec. myosur. [6] = experiment: preemergence application in the open, % damage; assay type: in vivo
Experimental: as §3

Stellaria media = experiment: preemergence application in the open, % damage; assay type: in vivo
Experimental: as §3

CCc1cccc(C)c1N(Cn1ccc(C)n1)C(=O)CCl [Compound 68]
% damage (Matric. spp.; 1.0 kg/ha): 80% | % damage (Matric. spp.; 2.0 kg/ha): 80% | % damage (Avena fat.; 1.0 kg/ha): 90% | % damage (Avena fat.; 2.0 kg/ha): 90% | % damage (Setaria spp. [1]; 1.0 kg/ha): 90% | % damage (Setaria spp. [1]; 2.0 kg/ha): 95% | % damage (Stell. med.; 1.0 kg/ha): 60% | % damage (Stell. med.; 2.0 kg/ha): 60% | % damage (Alopec. myosur. [2]; 1.0 kg/ha): 90% | % damage (Alopec. myosur. [2]; 2.0 kg/ha): 90% | % damage (Chrys. seget.; 1.0 kg/ha): 40% | % damage (Chrys. seget.; 2.0 kg/ha): 50% | % damage (Glyc. max; 0.25 kg/ha): 0% | % damage (Glyc. max; 1.0 kg/ha): 0% | % damage (Glyc. max; 2.0 kg/ha): 10% | % damage (Gossyp. hirs.; 0.25 kg/ha): 0% | % damage (Gossyp. hirs.; 1.0 kg/ha): 5% | % damage (Gossyp. hirs.; 2.0 kg/ha): 5% | % damage (Cyper. escul. [3]; 1.0 kg/ha): 85% | % damage (Cyper. escul. [3]; 2.0 kg/ha): 85% | % damage (Echin. c.g.; 0.25 kg/ha): 95% | % damage (Echin. c.g.; 1.0 kg/ha): 95% | % damage (Echin. c.g.; 2.0 kg/ha): 95% | % damage (Setaria spp. [4]; 0.25 kg/ha): 95% | % damage (Setaria spp. [4]; 1.0 kg/ha): 100% | % damage (Setaria spp. [4]; 2.0 kg/ha): 100% | % damage (Amar. retro.; 0.25 kg/ha): 95% | % damage (Amar. retro.; 1.0 kg/ha): 100% | % damage (Amar. retro.; 2.0 kg/ha): 100% | % damage (Solanum nigrum; 0.25 kg/ha): 95% | % damage (Solanum nigrum; 1.0 kg/ha): 100% | % damage (Solanum nigrum; 2.0 kg/ha): 100% | % damage (Euph. gen.; 0.25 kg/ha): 10% | % damage (Euph. gen.; 1.0 kg/ha): 60% | % damage (Euph. gen.; 2.0 kg/ha): 75% | % damage (Cyper. escul. [5]; 0.25 kg/ha): 65% | % damage (Cyper. escul. [5]; 1.0 kg/ha): 80% | % damage (Cyper. escul. [5]; 2.0 kg/ha): 80%

CCc1cccc(C)c1N(Cn1cncn1)C(=O)CCl [Compound 129]
% damage (Brassica napus; 2.0 kg/ha): 7.5% | % damage (Brassica napus; 4.0 kg/ha): 22.5% | % damage (Anth./Matric.; one value printed for two rates (2.0 4.0 kg/ha)): 35% | % damage (Lamium spp.; 2.0 kg/ha): 45% | % damage (Lamium spp.; 4.0 kg/ha): 90% | % damage (Alopec. myosur. [6]; 2.0 kg/ha): 35% | % damage (Alopec. myosur. [6]; 4.0 kg/ha): 68% | % damage (Stellaria media; 2.0 kg/ha): 24% | % damage (Stellaria media; 4.0 kg/ha): 49%

CCc1cccc(C)c1N(Cn1cncn1)C(=O)CCl [Compound 189]
% damage (Matric. spp.; 1.0 kg/ha): 30% | % damage (Matric. spp.; 2.0 kg/ha): 60% | % damage (Avena fat.; 1.0 kg/ha): 60% | % damage (Avena fat.; 2.0 kg/ha): 60% | % damage (Setaria spp. [1]; 1.0 kg/ha): 80% | % damage (Setaria spp. [1]; 2.0 kg/ha): 85% | % damage (Stell. med.; 1.0 kg/ha): 0% | % damage (Stell. med.; 2.0 kg/ha): 40% | % damage (Alopec. myosur. [2]; 1.0 kg/ha): 70% | % damage (Alopec. myosur. [2]; 2.0 kg/ha): 70% | % damage (Chrys. seget.; 1.0 kg/ha): 0% | % damage (Chrys. seget.; 2.0 kg/ha): 20% | % damage (Glyc. max; 0.5 kg/ha): 0% | % damage (Glyc. max; 1.0 kg/ha): 0% | % damage (Glyc. max; 2.0 kg/ha): 0% | % damage (Gossyp. hirs.; 0.5 kg/ha): 0% | % damage (Gossyp. hirs.; 1.0 kg/ha): 20% | % damage (Gossyp. hirs.; 2.0 kg/ha): 20% | % damage (Cyper. escul. [3]; 1.0 kg/ha): 65% | % damage (Cyper. escul. [3]; 2.0 kg/ha): 65% | % damage (Echin. c.g.; 0.5 kg/ha): 90% | % damage (Echin. c.g.; 1.0 kg/ha): 95% | % damage (Echin. c.g.; 2.0 kg/ha): 95% | % damage (Setaria spp. [4]; 0.5 kg/ha): 75% | % damage (Setaria spp. [4]; 1.0 kg/ha): 95% | % damage (Setaria spp. [4]; 2.0 kg/ha): 100% | % damage (Amar. retro.; 0.5 kg/ha): 30% | % damage (Amar. retro.; 1.0 kg/ha): 95% | % damage (Amar. retro.; 2.0 kg/ha): 95% | % damage (Solanum nigrum; 0.5 kg/ha): 30% | % damage (Solanum nigrum; 1.0 kg/ha): 95% | % damage (Solanum nigrum; 2.0 kg/ha): 95% | % damage (Euph. gen.; 0.5 kg/ha): 90% | % damage (Euph. gen.; 1.0 kg/ha): 95% | % damage (Euph. gen.; 2.0 kg/ha): 95% | % damage (Cyper. escul. [5]; 0.5 kg/ha): 50% | % damage (Cyper. escul. [5]; 1.0 kg/ha): 60% | % damage (Cyper. escul. [5]; 2.0 kg/ha): 80%

CCc1cccc(C)c1N(Cn1cncn1)C(=O)CCl [Compound 191]
% damage (Brassica napus; 2.0 kg/ha): 5% | % damage (Brassica napus; 4.0 kg/ha): 20% | % damage (Anth./Matric.; 2.0 kg/ha): 53% | % damage (Lamium spp.; 2.0 kg/ha): 40% | % damage (Lamium spp.; 4.0 kg/ha): 85% | % damage (Alopec. myosur. [6]; 2.0 kg/ha): 30% | % damage (Alopec. myosur. [6]; 4.0 kg/ha): 80% | % damage (Stellaria media; 2.0 kg/ha): 18% | % damage (Stellaria media; 4.0 kg/ha): 45%
